Patent publication US20200369674A1, “ANTI-PAIN COMPOUND AND PREPARATION METHOD THEREOF” (LUNAN PHARMACEUTICAL GROUP CORPORATION, priority 2017, published 2020)

Tests used:
Assay type in all cases: in vivo
[1] = system: ICR mice; experiment: Xylene-induced ear swelling test in mice (Effect Example 6); settings: 2 mg/kg i.g., 30 μL xylene one hour after administration
Experimental: (§1) ICR mice, body weight 18 g-22 g, half of them being male and the other half being female, provided by the Department of Laboratory Animals, Peking University. The animals were raised in a standard environment: temperature 23±1° C., relative humidity 55±5%, light-dark cycle 12 h/12 h, and fed with standard pellet feed.
Mice were randomly divided into 5 groups, 8 mice per group, half of them being male and the other half being female. Vehicle control group (double-distilled water, i.g.), dexamethasone control group (2 mg/kg, i.g.), compound DXL-A-22 group (1 mg/kg, i.g.), and compound DXL-A-24 group (1 mg/kg, i.g.) were set. All drugs were dissolved in double-distilled water before administration, and given by intragastric administration at 0.1 mL/10 g. One hour after administration, 30 μL of xylene was evenly smeared on the inner and outer sides of right ear of mouse to cause inflammation. After 0.5 hour, the left and right ears of mouse were cut, and circular ear pieces of the same size were punched at the same position on the left and right ears using the punch (diameter 6 mm) respectively, and weighed for the weights of the left and right ear pieces. The difference between the weight of the right ear after applying xylene and the weight of the left ear without applying xylene was used as swelling degree index (i.e., swelling degree). The swelling degree was calculated according to formula (1). The intensity of anti-inflammatory effect was expressed as inhibition rate (%), and the inhibition rate (%) was calculated according to formula (2).
Swelling degree=weight of right ear piece−weight of left ear piece (1)
Inflammation inhibition rate (%)=(ear swelling degree in vehicle control group−ear swelling degree in drug group)/ear swelling degree in vehicle control group×100% (2)

[2] = system: ICR mice; experiment: Carrageenan-induced paw swelling in mice; settings: 0.5 mg/kg i.g.
Experimental: as §1
The mouse was fixed in a special holder, and both hind feet were exposed. Before the test, a line was drawn at 0.5 cm below the ankle joint of mouse with a marker, and used as a mark for measuring plantar volume. 30 minutes before administration the volume of right hind foot was measured as basic threshold. The mice were randomly divided into 5 groups, 8 mice per group, half of them being male and the other half being female. Vehicle control group (double-distilled water, i.g.), dexamethasone control group (0.5 mg/kg, i.g.), compound DXL-A-22 group (1 mg/kg, i.g.), and DXL-A-24 group (1 mg/kg, i.g.) were set. All drugs were dissolved in double-distilled water before administration, and were administered at 0.1 mL/10 g. Immediately after intragastric administration, 20 μL of 5% carrageenan saline solution was injected subcutaneously in the right hind foot of the mice, and the plantar volumes were measured at time points of 0.5 h, 1 h and 2 h after injection. The difference between the plantar volume of right foot after injection of carrageenan and the plantar volume of right foot before injection was used as swelling degree index (i.e., swelling degree). The swelling degree was calculated according to formula (3). The intensity of anti-inflammatory effect was expressed as inhibition rate (%), and the inhibition rate (%) was calculated according to formula (4).
Swelling degree=plantar volume of right foot after injection−plantar volume of right foot before injection (3)
Inflammation inhibition rate (%)=(plantar swelling degree in vehicle control group−plantar swelling degree in drug administration group)/plantar swelling degree in vehicle control group×100% (4)

[3] = system: ICR mice; experiment: Formalin experiment; settings: Mus musculus, po, 2 h, 2.5% formalin two hours after administration, phase II 10-60 minutes, read-out: Phase II pain inhibition rate (%); for inhibition in vivo at 9 mg/kg: 9 mg/kg intragastric; for inhibition in vivo at 4 µmol/kg: 4 μmol/kg intragastric; for inhibition in vivo at 1 mg/kg: 1 mg/kg intragastric
Experimental: (§2) ICR mice, 18-22 g, half of them being male and the other half being female, provided by the Department of Laboratory Animals, Peking University (License No.: SCXK (Beijing) 2016-0010).
ICR mice, half of them being male and the other half being female, were randomly grouped, 8 mice per group. Vehicle control group (double-distilled water) and groups for samples to be tested were set, in which the compounds and doses thereof were shown in Table 3. All drugs were dissolved in double-distilled water before administration, and given by intragastric administration at predetermined doses. Two hours after administration, the mice were injected with 20 ul of 2.5% formalin solution in the right hind foot, and the time (s) of licking or biting foot was recorded as an index of pain response, in which 0-5 minutes was phase I, 10-60 minutes was phase II, and the total observation time was 60 minutes. The phase II pain inhibition rate of compound in mice was calculated according to the following formula:
Inhibition rate %=(time of licking or biting foot in vehicle control group−time of licking or biting foot in test group)/time of licking or biting foot in vehicle control group×100

[4] = system: ICR mice; experiment: Acetic acid writhing test; design: key to Inhibition rate (%): Symbol “—” indicates that the data obtained at this dose was not significantly different from the vehicle control group; settings: 0.6% acetic acid ip two hours after administration; for inhibition in vivo at 3 mg/kg / inhibition in vivo at 4 µmol/kg: Mus musculus, 2 h, read-out: Inhibition rate (%); for inhibition in vivo at 3 mg/kg: po, 3 mg/kg intragastric
Experimental: as §2
ICR mice, half of them being male and the other half being female, were randomly grouped, 8 mice per group. Vehicle control group (double-distilled water), ibuprofen control group, and groups for samples to be tested (the compounds and doses thereof were shown in Table 2) were set. All drugs were dissolved in double-distilled water before administration, and given by intragastric administration at predetermined doses. Two hours after the administration, the mice were intraperitoneally injected with 0.6% acetic acid solution (10 ml/kg, ip), and the number of times the mice writhed (abdomen depressed, buttock raised, body elongated) was recorded within 5-20 minutes. The inhibition rate % of compound on writhing pain in mice was calculated according to the following formula.
Inhibition rate %=(number of writhing times in vehicle control group−number of writhing times in test group)/number of writhing times in vehicle control group×100

[5] = system: ICR mice; experiment: Xylene-induced mouse ear swelling test (Effect Example 4); design: key to Inhibition rate (%): Symbol “—” indicates that the data obtained at this dose was not significantly different from the vehicle control group; settings: 50 uL xylene two hours after administration; for inhibition in vivo at 3 mg/kg: 3 mg/kg intragastric
Experimental: as §2
ICR mice were randomly grouped, 8 mice per group, half of them being male and the other half being female. Vehicle control group (double-distilled water) and groups for samples to be tested (the compounds and doses thereof were shown in Table 4). All drugs were dissolved in double-distilled water immediately before administration, and given by intragastric administration at predetermined doses. Two hours after administration, 50 uL of xylene was smeared evenly on the inner and outer sides of right ear of mouse. After 30 minutes, the left and right ears of mouse were cut, and circular ear pieces of the same size were punched at the same position on the left and right ears, and weighed. The ear swelling inhibition rate of compound in mice was calculated according to the formula.
Inhibition rate %=(degree of ear swelling in vehicle control group−degree of ear swelling in test group)/degree of ear swelling in vehicle control group×100

[6] = system: ICR mice; experiment: Hot plate test; settings: Mus musculus, po, latency 2.0 hours after administration, hot plate 55° C., read-out: PTE %; for change in vivo at 3 mg/kg: 3 mg/kg intragastric; for change in vivo at 4 µmol/kg: 4 μmol/kg intragastric; for change in vivo at 1 mg/kg: 1 mg/kg intragastric
Experimental: as §2
The temperature of hot plate was adjusted to 55° C., and the responses of mouse such as licking hind feet and jumping were used as the observation indexes. The time from the placement of mice on copper plate to the appearance of the above responses was defined as latency time. The latency time was measured for three times 30 minutes before administration, and the average value thereof was used as basic threshold, or baseline latency (BL). The animals with a latency time greater than 15 s and less than 5 s were removed, and the residual mice were randomly grouped, 8 animals per group.
Vehicle control group (double-distilled water) and groups for samples to be tested (the compounds and doses thereof were shown in Table 1) were set. All drugs were dissolved in […] before administration, and given by intragastric administration. The latency time was measured 2.0 hours after administration. Percentage of Pain Threshold Elevated Rate (PTE %) of compound on mice was calculated according to the following formula:
PTE %=(latency time of test group−latency time of vehicle control group)/latency time of vehicle control group×100

[7] = Mus musculus, po, 2 h, read-out: Inhibition rate (%)
[8] = Mus musculus, po, 2 h, 4 μmol/kg intragastric, read-out: Inhibition rate (%)

For `C[C@@H]1C[C@H]2[C@@H]3CCC4=CC(=O)C=C[C@]4(C)[C@@]3(F)[C@@H](O)C[C@]2(C)[C@@]1(O)C(=O)CO` [Dexamethasone, reference compound], which “Inhibition rate (%)” value [1] is on record?
Its value is 69.28%.

And the “Swelling degree” value ([1]; mean±SD)?
Its value is 2.93 ± 0.32 mg.

What about the “0.5 h inhibition rate (%)” value ([2]; 0.5 h after carrageenan injection) of the same compound?
The value was 69.55%.

What about the “0.5 h swelling degree (μL)” value ([2]; 0.5 h after carrageenan injection, mean±SD) of the same compound?
Its value is 26.00 ± 14.21**/ μL.

What about the “1 h inhibition rate (%)” value ([2]; 1 h after carrageenan injection) of the same compound?
The value was 77.06%.

And the “1 h swelling degree (μL)” value ([2]; 1 h after carrageenan injection, mean±SD)?
The value was 19.88 ± 10.09**/ μL.

And the “2 h inhibition rate (%)” value ([2]; 2 h after carrageenan injection)?
The value was 84.64%.

What about the “2 h swelling degree (μL)” value ([2]; 2 h after carrageenan injection, mean±SD) of the same compound?
The value was 17.13 ± 11.54**/ μL.

With `Clc1cccc(N2CC[N+]3(CCCC3)CC2)c1` [DXL-A-05, 8-(3-chlorophenyl)-5,8-diazaspiro[4.5]decan-5-ium bromide] as the compound, how does the inhibition in vivo at 9 mg/kg [3] read?
Its inhibition in vivo at 9 mg/kg is 32.9%.

What about the inhibition in vivo at 3 mg/kg [4] of the same compound?
The inhibition in vivo at 3 mg/kg was 22.5%.

And the inhibition in vivo at 3 mg/kg [5, 7]?
The inhibition in vivo at 3 mg/kg was 30.8%.

What about the change in vivo at 3 mg/kg [6] of the same compound?
Its change in vivo at 3 mg/kg is 19.5%.

For `Cc1cc(N2CC[N+]3(CCCC3)CC2)cc([N+](=O)[O-])c1` [DXL-A-29, 8-(3-methyl-5-nitrophenyl)-5,8-diazaspiro[4.5]decan-5-ium bromide], which inhibition in vivo at 4 µmol/kg [3] is on record?
The inhibition in vivo at 4 µmol/kg was 17.3%.

And the inhibition in vivo at 4 µmol/kg ([4]; 4 μmol/kg intragastric)?
Its inhibition in vivo at 4 µmol/kg is 76%.

And the inhibition in vivo at 4 µmol/kg [5, 8]?
The inhibition in vivo at 4 µmol/kg was 63.3%.

What about the change in vivo at 4 µmol/kg [6] of the same compound?
Its change in vivo at 4 µmol/kg is 36%.

What does the source list for `FC(F)(F)c1cc(N2CC[N+]3(CCCC3)CC2)cc(C(F)(F)F)c1` [DXL-A-27, 8-(3,5-bis(trifluoromethyl)phenyI)-5,8-diazaspiro[4.5]decan-5-ium bromide]?
inhibition in vivo at 4 µmol/kg [3]: 20.1%; Inhibition rate (%) ([4]; 4 μmol/kg intragastric): —; inhibition in vivo at 4 µmol/kg [5, 8]: 4.13%; change in vivo at 4 µmol/kg [6]: 49%

With `Br.Fc1ccc(N2CC[N+]3(CCCC3)CC2)cc1F` [DXL-A-21, 8-(3,4-difluorophenyl)-5,8-diazaspiro[4.5]decan-5-ium bromide] as the compound, how does the inhibition in vivo at 1 mg/kg [3] read?
Its inhibition in vivo at 1 mg/kg is 36.6%.

And the “Inhibition rate (%)” value ([4]; 1 mg/kg intragastric)?
The value was “—”.

What about the inhibition in vivo at 1 mg/kg ([5]; Mus musculus, po, 2 h, 1 mg/kg intragastric, read-out: Inhibition rate (%)) of the same compound?
The inhibition in vivo at 1 mg/kg was 42.5%.

What about the change in vivo at 1 mg/kg [6] of the same compound?
Its change in vivo at 1 mg/kg is 36.6%.

`Br.Fc1ccc(N2CC[N+]3(CCCC3)CC2)cc1` [DXL-A-16, 8-(4-fluorophenyl)-5,8-diazaspiro[4.5]decan-5-ium bromide] was tested. Which inhibition in vivo at 1 mg/kg [3] did it give?
The inhibition in vivo at 1 mg/kg was 31.4%.

What about the “Inhibition rate (%)” value ([4]; 1 mg/kg intragastric) of the same compound?
Its value is “—”.

And the “Inhibition rate (%)” value ([5]; 1 mg/kg intragastric)?
The value was “—”.

What about the change in vivo at 1 mg/kg [6] of the same compound?
The change in vivo at 1 mg/kg was 31.4%.

For `N#Cc1ccc(N2CC[N+]3(CCCC3)CC2)cc1[N+](=O)[O-].[Br-]` [DXL-A-32, 8-(4-cyano-3-nitrophenyl)-5,8-diazaspiro[4.5]decan-5-ium bromide], which inhibition in vivo at 4 µmol/kg [3] is on record?
Its inhibition in vivo at 4 µmol/kg is 2.64%.

And the “Inhibition rate (%)” value ([4]; 4 μmol/kg intragastric)?
Its value is “—”.

And the inhibition in vivo at 4 µmol/kg [5, 8]?
The inhibition in vivo at 4 µmol/kg was 20.4%.

What about the change in vivo at 4 µmol/kg [6] of the same compound?
Its change in vivo at 4 µmol/kg is 38%.

How did the inhibition in vivo at 9 mg/kg [3] turn out when `FC(F)(F)c1cccc(N2CC[N+]3(CCCC3)CC2)c1` [DXL-A-06, 8-(3-(trifluoromethyl)phenyl)-5,8-diazaspiro[4.5]decan-5-ium bromide] was run?
The inhibition in vivo at 9 mg/kg was 17.6%.

And the inhibition in vivo at 3 mg/kg [4]?
The inhibition in vivo at 3 mg/kg was 14%.

And the inhibition in vivo at 3 mg/kg [5, 7]?
Its inhibition in vivo at 3 mg/kg is 45.9%.

What about the change in vivo at 3 mg/kg [6] of the same compound?
Its change in vivo at 3 mg/kg is 16.7%.

What does the source list for `O=[N+]([O-])c1cc(N2CC[N+]3(CCCC3)CC2)cc(C(F)(F)F)c1` [DXL-A-28, 8-(3-nitro-5-(trifluoromethyl)phenyI)-5,8-diazaspiro[4.5]decan-5-ium bromide]?
inhibition in vivo at 4 µmol/kg [3]: 13.3%; Inhibition rate (%) ([4]; 4 μmol/kg intragastric): —; inhibition in vivo at 4 µmol/kg [5, 8]: 9.27%; change in vivo at 4 µmol/kg [6]: 36%

Which results are given for `Cc1ccc(N2CC[N+]3(CCCC3)CC2)cc1[N+](=O)[O-].[Br-]` [DXL-A-30, 8-(4-methyl-3-nitrophenyl)-5,8-diazaspiro[4.5]decan-5-ium bromide]?
inhibition in vivo at 4 µmol/kg [3]: 16.9%; inhibition in vivo at 4 µmol/kg ([4]; 4 μmol/kg intragastric): 41.8%; Inhibition rate (%) ([5]; 4 μmol/kg intragastric): —; change in vivo at 4 µmol/kg [6]: 21%
